Measured values reported in patent publication US4201781A, “Substituted 7[s-oxopyrido[2,3-d]pyrimidine carboxamido acetamido]cephalosporins” (Dainippon Pharmaceutical Co., Ltd., priority 1977, dated 1980).
≈ marks a conversion by molar mass, not a printed value. Read-outs that look alike come from different tables or passages of the source.

Assays:
[1] = tested on: Corynebacterium pyrogenes C-21; assay: In vitro antibacterial activity (MIC); type: cell-based; conditions: C21; Corynebacterium pyrogenes C-21; in vitro; read-out: minimum inhibitory concentration (MIC)
From the text: (§1) The numerals in the table show minimum inhibitory concentrations (MIC)

[2] = tested on: Enterobacter cloacae P-2540; assay: In vitro antibacterial activity (MIC); type: cell-based
From the text: as §1

[3] = tested on: Escherichia coli NIHJ JC-2; assay: In vitro antibacterial activity (MIC); type: cell-based
From the text: as §1

Escherichia coli P-5101 [4] = assay: In vitro antibacterial activity (MIC); type: cell-based; conditions: P5101; Escherichia coli P-5101; in vitro; read-out: minimum inhibitory concentration (MIC)
From the text: as §1

[5] = tested on: Klebsiella pneumoniae No. 13; assay: In vitro antibacterial activity (MIC); type: cell-based; conditions: Klebsiella pneumoniae No. 13; in vitro; read-out: minimum inhibitory concentration (MIC)
From the text: as §1

Proteus mirabilis P-2381 = assay: In vitro antibacterial activity (MIC); type: cell-based; conditions: P2381; Proteus mirabilis P-2381; in vitro; read-out: minimum inhibitory concentration (MIC)
From the text: as §1

Proteus morganii Kono = assay: In vitro antibacterial activity (MIC); type: cell-based; conditions: Morganella morganii, read-out: minimum inhibitory concentration (MIC)
From the text: as §1

[6] = tested on: Pseudomonas aeruginosa No. 12; assay: In vitro antibacterial activity (MIC); type: cell-based
From the text: as §1

[7] = tested on: Pseudomonas aeruginosa Tsuchijima; assay: In vitro antibacterial activity (MIC); type: cell-based; conditions: read-out: minimum inhibitory concentration (MIC)
From the text: as §1

[8] = tested on: Salmonella enteritidis No. 1891; assay: In vitro antibacterial activity (MIC); type: cell-based; conditions: Salmonella enterica; Salmonella enteritidis No. 1891; in vitro; read-out: minimum inhibitory concentration (MIC)
From the text: as §1

[9] = tested on: Salmonella typhimurium S-9; assay: In vitro antibacterial activity (MIC); type: cell-based; conditions: Salmonella enterica, read-out: minimum inhibitory concentration (MIC)
From the text: as §1

[10] = tested on: Serratia marcescens IFO 3736; assay: In vitro antibacterial activity (MIC); type: cell-based; conditions: IFO3736; Serratia marcescens IFO 3736; in vitro; read-out: minimum inhibitory concentration (MIC)
From the text: as §1

[11] = tested on: Staphylococcus aureus 209P JC-1; assay: In vitro antibacterial activity (MIC); type: cell-based; conditions: read-out: minimum inhibitory concentration (MIC)
From the text: as §1

[12] = tested on: Staphylococcus aureus No. 50774; assay: In vitro antibacterial activity (MIC); type: cell-based
From the text: as §1

[13] = tested on: Streptococcus pyrogenes 65A; assay: In vitro antibacterial activity (MIC); type: cell-based; conditions: Streptococcus pyrogenes 65A; in vitro; read-out: minimum inhibitory concentration (MIC)
From the text: as §1

Escherichia coli P-140a = assay: In vitro antibacterial activity (MIC); type: cell-based
From the text: as §1
(§2) *Clinically isolated Cephalexinresistant strain.

Shigella flexneri 2a = assay: In vitro antibacterial activity (MIC); type: cell-based; conditions: Shigella flexneri 2a; clinically isolated Cephalexin-resistant strain; in vitro; read-out: minimum inhibitory concentration (MIC)
From the text: as §1, §2

[14] = tested on: Shigella flexneri 4a P-330; assay: In vitro antibacterial activity (MIC); type: cell-based; conditions: 4AP330; Shigella flexneri 4a P-330; clinically isolated Cephalexin-resistant strain; in vitro; read-out: minimum inhibitory concentration (MIC)
From the text: as §1, §2

[15] = tested on: Staphylococcus aureus No. 50774; assay: In vivo efficacy against systemic infection in mice; design: species or system male mice (ddY); conditions: NO.50774, 336 h, mice, sc, twice about 5 minutes and 6 hours after intravenous infection, observation 14 days, read-out: ED50 (median effective dose)
Protocol: (§3) Compounds 1,2, A and B were each dissolved in deionized water to prepare injectable solutions having various concentrations.
(§4) Each of the injectable solutions was administered to mice infected with each of the bacteria described below under the conditions described below, and the median effective doses (ED50) obtained are shown in Table II. […]
(§5) male mice (ddY) weighing about 20 g
(1) Staphylococcus aureus No. 50774; Intravenous infection with 50 to 100 LD50 (about 5×10^8 cells/mouse) of a bacterial suspension in saline. twice, about 5 minutes and 6 hours after infection. […]
(§6) Note; The numerals in the table show ED50 (mg/kg). ED50 values
(§7) were calculated in accordance with the BehrensKaerber method (Arch. Exp.

Escherichia coli P-5101 [16] = assay: as above; design: species or system male mice (ddY); conditions: P5101, 168 h, mice, sc, twice about 5 minutes and 6 hours after intraperitoneal infection, observation 7 days, read-out: ED50 (median effective dose)
Protocol: as §3
Each of the injectable solutions was administered to mice infected with each of the bacteria described below under the conditions described below, and the median effective doses (ED50) obtained are shown in Table II.
as §5
(2) Escherichia coli P-5101; Intraperitoneal infection with 50 to 100 LD50 (about 9×10^6 cells/mouse) of a bacterial suspension in trypto-soy broth with 4% mucin.
twice, about 5 minutes and 6 hours after infection.
as §6, §7

[17] = tested on: Pseudomonas aeruginosa No. 12; assay: as above; design: species or system male mice (ddY); conditions: NO.12, 168 h, mice, twice about 5 minutes and 6 hours after intraperitoneal infection, observation 7 days, read-out: ED50 (median effective dose)
Protocol: as §3, §4, §5
(3) Pseudomonas aeruginosa No. 12; Intraperitoneal infection with 50 to 100 LD50 (about 5×10^3 cells/mouse) of a bacterial suspension in trypto-soy broth with 4% mucin. twice, about 5 minutes and 6 hours after infection. […]
as §6, §7

Acute toxicity in mice = conditions: mouse, in vivo, iv; read-out: LD50 (median lethal dose)
Protocol: Injectable solutions containing compounds 1, 2 and compound A in various concentrations were administered to male mice (ddY) (4 to 8 in each group) in a dose of 0.1 ml per 10 g of body weight. The number of dead mice was counted after a lapse of 7 days, and the value of median lethal dose (LD50, mg/kg) was calculated.
Note: The LD50 values were calculated in accordance with the […]

Solubility in water = type: physicochemical; conditions: for solubility: deionized water at 25° C.
Protocol: |Solubility in deionized water at 25° C.

Row | Structure (SMILES) | MIC [1] [mg/L] | MIC (Escherichia coli P-5101 [4]) [mg/L] | MIC [5] [mg/L] | MIC (Proteus mirabilis P-2381) [mg/L] | MIC [8] [mg/L] | MIC [10] [mg/L] | MIC [13] [mg/L] | MIC (Shigella flexneri 2a) [mg/L] | MIC [14] [mg/L] | ED50 [15] [mg/kg] | ED50 (Escherichia coli P-5101 [16]) [mg/kg] | ED50 ([17]; po) [mg/kg] | ED50 ([17]; sc) [mg/kg] | solubility (Solubility in water) [mg/mL] | further results
1 | O=CN1CCN(c2ncc3c(=O)c(C(=O)N[C@@H](C(=O)N[C@@H]4C(=O)N5C(C(=O)O)=C(CSc6nnnn6CC(=O)O)CS[C@H]45)c4ccc(O)cc4)c[nH]c3n2)CC1 [Compound 1, Disodium 7-{D-α-[5,8-dihydro-2-(4-formyl-1-piperazinyl)-5-oxopyrido[2,3-d]pyrimidine-6-carboxamido]-α-p-hydroxyphenylacetamido}-3-(1-carboxylatomethyl-1,2,3,4-tetrazol-5-yl)thiomethyl-3-cephem-4-carboxylate] | 3.13 | 0.78 | 1.56 | 0.78 | 0.78 | 3.13 | 0.2 | 1.56 | 6.25 | 13.1 | 1.5 | > 100 | 4.8 | ~400 | MIC ([2]; Enterobacter cloacae, P2540, read-out: minimum inhibitory concentration (MIC)): 1.56 mg/L; MIC ([3]; Escherichia coli, NIHJJC2, read-out: minimum inhibitory concentration (MIC)): 1.56 mg/L; MIC (Proteus morganii Kono): 1.56 mg/L; MIC ([6]; Pseudomonas aeruginosa, NO.12, read-out: minimum inhibitory concentration (MIC)): 6.25 mg/L; MIC ([7]; Pseudomonas aeruginosa): 1.56 mg/L; MIC ([9]; TYPHIMURIUM): 1.56 mg/L; MIC ([11]; Staphylococcus aureus, 209P): 6.25 mg/L; MIC ([12]; Staphylococcus aureus, NO.50774, read-out: minimum inhibitory concentration (MIC)): 6.25 mg/L; MIC (Escherichia coli P-140a; Escherichia coli, read-out: minimum inhibitory concentration (MIC)): 1.56 mg/L; LD50 at 168 h (Acute toxicity in mice): > 2000 mg/kg
2 | Cc1nnc(SCC2=C(C(=O)O)N3C(=O)[C@@H](NC(=O)Cn4cnnn4)[C@H]3SC2)s1 [B, Cefazolin] | 0.39 (≈ 0.858 µM) | 1.56 (≈ 3.43 µM) | 3.13 (≈ 6.89 µM) | 6.25 (≈ 13.8 µM) | 1.56 (≈ 3.43 µM) | > 200 | 0.1 (≈ 0.22 µM) | 3.13 (≈ 6.89 µM) | > 200 | 0.2 | 5.3 | > 100 | > 800 | 400 (≈ 880000 µM) | MIC ([2]; P2540, Enterobacter cloacae P-2540, in vitro, read-out: minimum inhibitory concentration (MIC)): > 200 mg/L; MIC ([3]; NIHJJC2, Escherichia coli NIHJ JC-2, in vitro, read-out: minimum inhibitory concentration (MIC)): 1.56 mg/L (≈ 3.43 µM); MIC (Proteus morganii Kono; Proteus morganii Kono, in vitro): > 200 mg/L; MIC ([6]; Pseudomonas aeruginosa No. 12, in vitro, read-out: minimum inhibitory concentration (MIC)): > 200 mg/L; MIC ([7]; Pseudomonas aeruginosa Tsuchijima, in vitro): > 200 mg/L; MIC ([9]; Salmonella typhimurium S-9, in vitro): 1.56 mg/L (≈ 3.43 µM); MIC ([11]; Staphylococcus aureus 209P JC-1, in vitro): 0.2 mg/L (≈ 0.44 µM); MIC ([12]; Staphylococcus aureus No. 50774, in vitro, read-out: minimum inhibitory concentration (MIC)): 0.2 mg/L (≈ 0.44 µM); minimum inhibitory concentration (MIC) (Escherichia coli P-140a): > 200 mg/L
3 | Cn1nnnc1SCC1=C(C(=O)O)N2C(=O)C(NC(=O)C(NC(=O)c3c[nH]c4nc(N5CCNCC5)ncc4c3=O)c3ccc(O)cc3)C2SC1 (stereo not drawn) |  |  |  |  |  |  |  |  |  |  |  |  |  |  | Solubility in water (in words) (Solubility in water; water / deionized water / aqueous medium): soluble in deionized water in the same degree as compound A
